# Data taken from BindingDB's records for patent US12466821 (Novartis, 2025).
# pIC50: −log10 of the molar value.
# Biological target: T1, DNA polymerase catalytic subunit (Human herpesvirus 1 (strain 17), UniProt P04293)
# T1 sequence (P04293 whole entry): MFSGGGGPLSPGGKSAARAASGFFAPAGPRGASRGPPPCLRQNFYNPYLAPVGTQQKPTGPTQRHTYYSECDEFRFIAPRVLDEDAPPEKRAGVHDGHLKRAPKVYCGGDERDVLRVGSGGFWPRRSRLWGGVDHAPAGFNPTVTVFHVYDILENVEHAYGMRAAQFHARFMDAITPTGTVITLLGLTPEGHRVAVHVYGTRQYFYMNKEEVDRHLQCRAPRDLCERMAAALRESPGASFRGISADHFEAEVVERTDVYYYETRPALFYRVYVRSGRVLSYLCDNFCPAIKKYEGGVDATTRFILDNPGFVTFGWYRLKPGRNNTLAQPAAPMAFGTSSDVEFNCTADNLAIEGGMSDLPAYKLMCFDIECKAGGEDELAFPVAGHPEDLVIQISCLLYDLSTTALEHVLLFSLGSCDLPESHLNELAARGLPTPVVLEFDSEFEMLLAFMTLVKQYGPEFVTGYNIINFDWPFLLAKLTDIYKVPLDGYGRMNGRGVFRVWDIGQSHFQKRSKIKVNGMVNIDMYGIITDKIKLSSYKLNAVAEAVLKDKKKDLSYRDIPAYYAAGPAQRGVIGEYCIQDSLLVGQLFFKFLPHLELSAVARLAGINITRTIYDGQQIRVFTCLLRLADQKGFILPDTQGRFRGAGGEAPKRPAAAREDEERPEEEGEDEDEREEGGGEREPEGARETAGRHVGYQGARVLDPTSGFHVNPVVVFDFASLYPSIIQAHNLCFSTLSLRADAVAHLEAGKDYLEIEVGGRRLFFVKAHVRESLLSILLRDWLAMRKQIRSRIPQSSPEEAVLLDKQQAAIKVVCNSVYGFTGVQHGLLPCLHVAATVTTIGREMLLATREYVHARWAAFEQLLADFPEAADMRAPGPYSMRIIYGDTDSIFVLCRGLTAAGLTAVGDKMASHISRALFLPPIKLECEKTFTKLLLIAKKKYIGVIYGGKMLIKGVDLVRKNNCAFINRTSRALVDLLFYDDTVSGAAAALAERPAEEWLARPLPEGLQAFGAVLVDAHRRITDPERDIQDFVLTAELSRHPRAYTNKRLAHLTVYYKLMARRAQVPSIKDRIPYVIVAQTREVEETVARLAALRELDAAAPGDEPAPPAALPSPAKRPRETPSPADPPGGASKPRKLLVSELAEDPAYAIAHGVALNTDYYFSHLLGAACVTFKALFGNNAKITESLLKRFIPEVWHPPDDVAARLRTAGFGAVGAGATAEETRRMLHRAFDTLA
row,SMILES,pIC50
1,"N#Cc1ccc(CNC(=O)c2ccc3n(c2=O)CCN(CC2(S(=O)(=O)CCCO)CC2)C3=O)cc1F [US12466821, Example 23]",6.91
2,"CS(=O)(=O)CCN1CCn2c(ccc(C(=O)NCc3ccc(Cl)cc3)c2=O)C1=O [US12466821, Example 51]",6.10
3,"CN(C)S(=O)(=O)C1(CN2CCn3c(ccc(C(=O)NCc4ccc(C#N)cc4)c3=O)C2=O)CC1 [US12466821, Example 90-2]",7.70
4,"N#CCS(=O)(=O)C1(CN2CCn3c(ccc(C(=O)NCc4ccc(Cl)cc4)c3=O)C2=O)CC1 [US12466821, Example 108-1]",6.94
5,"CS(=O)(=O)CCCN1CCn2c(c(C3CC3)cc(C(=O)NCc3ccc(Cl)cc3)c2=O)C1=O [US12466821, Example 130]",5.62
6,"O=C(NCc1ccc(Cl)cc1)c1cc(C2CC2)c2n(c1=O)CCN(CCN1CCCS1(=O)=O)C2=O [US12466821, Example 131]",6.51
7,"O=C(NCc1ccc(Cl)cc1)c1cc(CC2CC2)c2n(c1=O)CCN(CCN1CCCS1(=O)=O)C2=O [US12466821, Example 133]",6.49
8,"CCc1cc(C(=O)NCc2ccc(Cl)cc2)c(=O)n2c1C(=O)N(CCN1CCCS1(=O)=O)CC2 [US12466821, Example 135]",6.47
9,"O=C(NCc1ccc(Cl)cc1)c1cc(C(F)F)c2n(c1=O)CCN(CCN1CCCS1(=O)=O)C2=O [US12466821, Example 144]",5.95
10,"CS(=O)(=O)CCCN1CCn2c(c(C(F)(F)F)cc(C(=O)NCc3ccc(Cl)cc3)c2=O)C1=O [US12466821, Example 146]",4.83
11,"Cc1cc(C(=O)NCc2ccc(Cl)cc2)c(=O)n2c1C(=O)N(CC1(N3CCCS3(=O)=O)CC1)CC2 [US12466821, Example 150]",7.19
12,"Cc1cc(C(=O)NCc2ccc(Cl)cc2)c(=O)n2c1C(=O)N(CCC1(S(C)(=O)=O)CC1)CC2 [US12466821, Example 151]",5.03
13,"Cc1cc(C(=O)NCc2ccc(Cl)cc2)c(=O)n2c1C(=O)N(CC1(CS(C)(=O)=O)CC1)CC2 [US12466821, Example 154]",6.55
14,"CN(CCN1CCn2c(c(F)cc(C(=O)NCc3ccc(Cl)cc3)c2=O)C1=O)S(C)(=O)=O [US12466821, Example 160]",5.69
15,"CS(=O)(=O)C1(CCN2CCn3c(c(F)cc(C(=O)NCc4ccc(Cl)cc4)c3=O)C2=O)CC1 [US12466821, Example 165]",3.86
16,"CS(=O)(=O)C1(CN2CCn3c(c(F)cc(C(=O)NCc4ccc(Cl)cc4)c3=O)C2=O)CC1 [US12466821, Example 167]",7.14
17,"CS(=O)(=O)CC1(CN2CCn3c(c(F)cc(C(=O)NCc4ccc(Cl)cc4)c3=O)C2=O)CC1 [US12466821, Example 168]",6.53
18,"CS(=O)(=O)C1(CCN2CCn3c(ccc(C(=O)NCc4ccc(Cl)cc4)c3=O)C2=O)CC1 [US12466821, Example 170]",5.03
19,"NC1(CN2CCn3c(ccc(C(=O)NCc4ccc(Cl)cc4)c3=O)C2=O)CC1 [US12466821, Example 197]",5.44
20,"CCOC(=O)C1(CN2CCn3c(ccc(C(=O)NCc4ccc(Cl)cc4)c3=O)C2=O)CC1 [US12466821, Example 207]",5.54
21,"O=C(NCc1ccc(Cl)cc1)c1ccc2n(c1=O)CCN(CC1(C(=O)N3CCC3)CC1)C2=O [US12466821, Example 208]",5.34
22,"CN(C)C(=O)C1(CN2CCn3c(ccc(C(=O)NCc4ccc(Cl)cc4)c3=O)C2=O)CC1 [US12466821, Example 209]",5.79
23,"O=C(NCc1ccc(Cl)cc1)c1ccc2n(c1=O)CCN(CC1(C(=O)N3CCOCC3)CC1)C2=O [US12466821, Example 211]",5.32
